Where two headings read alike, the source gives them in different places.
Legend:
human full length Hsp90 = target: T1, human full length Hsp90 (Homo sapiens, UniProt P07900); assay: Fluorescence polarization Hsp90 competitive binding assay (GM-FITC displacement)
T1 construct: amino acid residues 1 to 732 of human Hsp90 (GenBank: BC121062.2); made in house; host or cells: E. coli BL21DE3 (pET15b)
Experimental: Hsp90 binding assays was performed generally according to the procedure described in J. Biomol. […] Hsp90 inhibitors were solubilized in DMSO at a stock concentration of 50 mM. […] Eighty five μl of binding assay buffer (20 mM HEPES, pH-7.5, 50 mM KCl, 5 mM MgCl2, 20 mM sodium molybdate, 0.01% NP-40, 2 mM DTT, and 0.1 mg/ml BSA) was added to the wells of a 96 well black plate placed on ice. […] Next, 10 μl either binding assay buffer alone (control) or human full length Hsp90 protein diluted in the binding assay buffer was added to achieve a final concentration of 50 nM. The plates were incubated at 4° C. on a plate shaker for 24 h. Two μl of 50× GM-FITC (9 nM final) in DMSO was added to all wells and the plate was incubated at ambient temperature for 1 h with shaking. Fluorescence polarization readings were taken in duplicate at excitation and emission wavelengths of 480 nm and 500 nm respectively. Specific binding was calculated by subtracting polarization values in the presence of Hsp90 from those in the absence of Hsp90. To calculate percent inhibition the specific binding values obtained for GA-FITC in the presence of compound were compared to values for GA-FITC in the absence of compound (DMSO only).

LnCaP cells = assay: Tumor cell viability, ATPlite; type: cell-based; conditions: Homo sapiens, 72 h, read-out: EC50, decrease in cell viability
Experimental: Akt1 levels in the cell lysates were measured using kits from R&D Systems used according to the manufacturer's recommendations. Cell lysates were assayed at a 1:24 dilution for the Akt1 ELISA. The Akt1 concentrations in the cell lysates were extrapolated from the standard curve and corrected for lysate protein concentration. Akt1 levels were determined using a micro-titer plate reader (Model #Synergy HT; BioTek Inc., Winooski, Vt.). LnCaP cells were cultured in culture medium and passaged after lifting using 0.25% trypsin/EDTA. LnCaP cells were seeded into a 96 well tissue culture plate at 1.3×10^4 cells per well in a volume of 100 uL of culture medium. […] Caspase 3/7 activity was measured using a Homogeneous Caspase 3/7 Assay Kit used according to the manufacturer's recommendations. In detail, an equal volume of Caspase 3/7 Assay Kit reagent was added to the wells and fluorescence readings (Ex/Em 485/528) were taken after 3, 6, and 23 h at ambient temperature using a micro-titer plate reader. […] Fluorescence intensities of the dilutions were measured to obtain a standard curve. […] Cell viability was measured with the ATPlite Kit used according to the manufacturer's recommendation. […] Cultures were mixed at 1,000 rpm for 2 min in the dark and luminescence quantification was accomplished using a micro-titer plate reader (POLARstar Omega micro-titer plate reader; BMG Labtech).

R127 = assay: Efficacy in ovarian cancer cells, ADP-GLO; type: cell-based
Experimental: (§1) The effect of SBI-0640725 on cell viability was determined by measuring cellular dehydrogenase activity (U251MG and MBA-MD-231 cells) or by measuring ADP levels (HepG2) after treating cells for 72 hours with increasing concentrations of SBI-0640725. To measure dehydrogenase activity, CCK-8 kit reagent (Dojindo) was added to the wells and incubated for 2 hours, after which absorbance was measured at 450 nm using a Synergy HT micro-titer plate reader (Biotek). To measure ADP levels, ADP-GLO reagent (Life Technologies) was added to the wells, and luminescence was measured after a 30 minute incubation using a POLARstar Omega micro-titer plate reader (BMG).
(§2) The table below summarizes efficacy of SBI-0640725 in various cancer cell lines, including U251MG, MDA-MB-231, and HepG2, using ADP-GLO assay described above. As used herein “efficacy” (EC50) is the concentration of a compound that produces half-maximal response in a cellular assay.

R182 = assay: Efficacy in ovarian cancer cells, ADP-GLO; type: cell-based
Experimental: as §1, §2

[1] = system: Caspase 3/7 activity in U251MG cells; assay: Cellular Caspase-3/7 luminescence assay; type: cell-based, human; conditions: 72 hours
Experimental: Further, the effect of SBI-0640725 on cellular caspase levels was also quantitated in U251MG, MBA-MD-231 and HepG2 cells. Each cell type was treated with increasing concentrations of SBI-0640725 for 72 hours. Quantification of total cellular Caspase-3 and 7 activity was accomplished using a Caspase-3/7 luminescence assay kit (Promega) according to the manufacturer's recommendations, and analyzed with a POLARstar Omega micro-titer plate reader (BMG). […] Caspase activity is a marker for apoptotic cell death.

Akt1 in U251MG cells = assay: Hsp90 client protein stability, Akt1 ELISA; type: cell-based, human; conditions: 48 hours, increasing concentrations
Experimental: In further experiments, the effect of SBI-0640725 on the stability of Hsp90 client proteins was analyzed. […] Akt1 protein levels were measured in cell lysates using ELISA.

U251MG = assay: Cell viability / efficacy in GBM cells; type: cell-based, human
Experimental: as §1, §2

MDA-MB-231 = assay: Cell viability / efficacy in breast cancer cells; type: cell-based
Experimental: as §1, §2

EGFR in U251MG cells = assay: Hsp90 client protein stability, EGFR; type: cell-based, human; conditions: 48 hours, increasing concentrations
HepG2 = assay: Cell viability / efficacy in liver cancer cells, ADP-GLO; type: cell-based
Experimental: as §1, §2

U87MG = assay: Efficacy in GBM cells, ADP-GLO; type: cell-based; conditions: Homo sapiens, U-87 MG
[2] = IC50, inhibition of Hsp90 activity, FIG. 7 concentration response
[3] = Table 1, 50 nM Hsp90, 9 nM GM-FITC, read-out: Biochemical Potency IC50
[4] = Table II, binding affinities ranked by potency
[5] = Table II, binding affinities ranked by potency, read-out: IC50

IC50 (human full length Hsp90; [2]) [nM] | IC50 (human full length Hsp90; [3]) [nM] | Ki (human full length Hsp90; [4]) [nM] | IC50 (human full length Hsp90; [5]) [nM] | IC50 (human full length Hsp90; assay validation / precision runs, read-out: IC50) [nM] | EC50 (LnCaP cells) [nM] | EC50 (R127) [nM] | EC50 (R182) [nM] | EC50 (U251MG; Homo sapiens, U-251, GBM, ADP-GLO) [nM] | EC50 (MDA-MB-231; Homo sapiens, Breast Cancer, MDA-MB-231, ADP-GLO) [nM] | EC50 (HepG2; Homo sapiens, Liver Cancer, HepG2, ADP-GLO) [nM] | EC50 (U87MG) [nM] | SMILES | Caspase 3/7 activity [1] | levels of the client protein Akt1 (Akt1 in U251MG cells) | cell viability (U251MG; 72 hours, dehydrogenase activity (CCK-8)) | cell viability (MDA-MB-231; MBA-MD-231, 72 hours, dehydrogenase activity (CCK-8)) | level of the client protein EGFR (EGFR in U251MG cells) | cell viability (HepG2; HepG2, 72 hours, ADP levels (ADP-GLO))
255 | 255 | 64 | 255 | 255 to 308 | 3800 |  |  |  |  |  |  | COc1c(C)cnc(CN(CCc2ccccc2)c2cc(Cl)nc(N)n2)c1C [SBI-0639353, 6-Chloro-N4-((4-methoxy-3,5-dimethylpyridin-2-yl)methyl)-N4-phenethylpyrimidine-2,4-diamine] |  |  |  |  |  | 
101 | 101 | 25 | 101 |  |  | 410 | 690 | 880 | 2400 | 1300 | 6700 | COc1c(C)cnc(CN(CCc2ccc(F)cc2)c2cc(Cl)nc(N)n2)c1C [SBI-0640725] | increase in Caspase 3/7 activity | progressive decrease in the levels of the client protein Akt1 | reduction in cell viability | reduction in cell viability | observed to decrease | reduction in cell viability

Source: patent US20160311795A1, “PYRIMIDINE DIAMINE DERIVATIVES AS INHIBITORS OF CYTOSOLIC HSP90” (CALASIA PHARMACEUTICALS, INC., priority 2012, published 2016)
